The assay can be described thus: Inhibition of [125I]ET1 binding to porcine kidney inner medulla membranes.

What is called IC50 is the concentration needed to halve the response being measured. Read a high IC50 as lower potency. On to `CCOc1ccc2c(c1)c(-c1ccc(OC)cc1)c(C(=O)O)c(=O)n2Cc1cc(OC)ccc1OC` [1-(2,5-Dimethoxy-benzyl)-6-ethoxy-4-(4-methoxy-phenyl)-2-oxo-1,2-dihydro-quinoline-3-carboxylic acid], for which the IC50 worked out at 200 nM.
With `CCOc1ccc2c(c1)c(-c1ccc(OC)cc1OC)c(C(=O)O)c(=O)n2Cc1ccccc1OC` [4-(2,4-Dimethoxy-phenyl)-6-ethoxy-1-(2-methoxy-benzyl)-2-oxo-1,2-dihydro-quinoline-3-carboxylic acid] the figure was 540 nM; with `COc1ccccc1Cn1c(=O)c(C(=O)O)c(-c2ccc3c(c2)OCO3)c2ccccc21` [4-Benzo[1,3]dioxol-5-yl-1-(2-methoxy-benzyl)-2-oxo-1,2-dihydro-quinoline-3-carboxylic acid], 940 nM.
With `COc1ccc(Cn2c(=O)c(C(=O)O)c(-c3ccc4c(c3)OCO4)c3ccccc32)cc1` [4-Benzo[1,3]dioxol-5-yl-1-(4-methoxy-benzyl)-2-oxo-1,2-dihydro-quinoline-3-carboxylic acid] the figure was 6800 nM; with `O=C(O)c1c(-c2ccc3c(c2)OCO3)c2ccccc2n(Cc2ccccc2)c1=O` [4-Benzo[1,3]dioxol-5-yl-1-benzyl-2-oxo-1,2-dihydro-quinoline-3-carboxylic acid], over 10000 nM; with `COc1ccccc1Cn1c(=O)c(C(=O)O)c(-c2ccc3c(c2)OCO3)c2c(OC)c(OC)ccc21` [4-Benzo[1,3]dioxol-5-yl-5,6-dimethoxy-1-(2-methoxy-benzyl)-2-oxo-1,2-dihydro-quinoline-3-carboxylic acid], 2600 nM.
For `CCOc1ccc2c(c1)c(-c1ccc3c(c1)OCO3)c(C(=O)O)c(=O)n2Cc1ccccc1OC` [4-Benzo[1,3]dioxol-5-yl-6-ethoxy-1-(2-methoxy-benzyl)-2-oxo-1,2-dihydro-quinoline-3-carboxylic acid] the value was 450 nM.
`CCc1ccc2c(c1)c(-c1ccc3c(c1)OCO3)c(C(=O)O)c(=O)n2Cc1ccccc1OC` [4-Benzo[1,3]dioxol-5-yl-6-ethyl-1-(2-methoxy-benzyl)-2-oxo-1,2-dihydro-quinoline-3-carboxylic acid] gave a 50% inhibitory concentration (IC50) of 1300 nM.
`CCOc1ccc2c(c1)c(-c1ccc(OC)cc1)c(C(=O)O)c(=O)n2Cc1ccccc1OC` [6-Ethoxy-1-(2-methoxy-benzyl)-4-(4-methoxy-phenyl)-2-oxo-1,2-dihydro-quinoline-3-carboxylic acid] came in with an IC50 of 500 nM.
